In article PMC9088311, “Cyclic Thiosulfonates for Thiol-Mediated Uptake: Cascade Exchangers, Transporters, Inhibitors” (JACS Au, 2022):
Values after ≈ are worked out from the molar mass of the structure shown. Read-outs that look alike come from different tables or passages of the source.

How the values were obtained:
HeLa Kyoto cells [1] = experiment: Relative viability (HOE/PI) in HCHT screening
In short: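 HK cells exposed to increasing inhibitor concentrations, then fluorescent transporters at constant concentration, either after inhibitor removal (pre-incubation) or without removal (co-incubation).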

HK cells, transporter 31 [2] = settings: transporter 31 10 μM, pre-incubation (P), cited from earlier work; for IC50: read-out: IC50 (concentration needed to reach 50% inhibition)
HeLa Kyoto cells [3] = settings: with transporter 31; pre-incubation (P); cited from earlier work
HK cells, transporter 31 [4] = experiment: HCHT imaging: inhibition of cytosolic delivery of ETP transporter 31; type: cell-based, Human; settings: inhibitor 1 h; for IC15: read-out: MIC (concentration needed to reach 15% inhibition), transporter 31 10 μM
In short: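 HeLa Kyoto cells grown 24 h in FluoroBrite DMEM + 10% FBS on 96-well black plates were exposed to serially diluted inhibitors for 1 h at 37 °C, then given fluorescent transporter 31 at 10 μM for 30 min, either after washing the inhibitor out (pre-incubation) or with it still present (co-incubation). Cytosolic delivery was then scored by automated HCHT live-cell imaging with Hoechst 33342 and PI staining.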

trypsin = experiment: Trypsin inhibition (preliminary, not shown); type: biochemical; settings: 50 μM; preliminary results
cathepsin L = cathepsin L (Homo sapiens, UniProt P07711); experiment: Cathepsin L inhibition (preliminary, not shown); type: biochemical; settings: 50 μM; preliminary results
cathepsin B = cathepsin B (Homo sapiens, UniProt P07858); experiment: Cathepsin B inhibition (preliminary, not shown); type: biochemical; settings: 50 μM; preliminary results
HK cells, transporter 32 = tested on: HK cells, transporter 32; design: method as in PMID 34173696; settings: transporter 32 0.5 or 1 μM, pre-incubation (P), cited from earlier work
in vitro = settings: human
[5] = with transporter 28, pre-incubation (P)
[6] = Homo sapiens, 1 h, read-out: IC50 (concentration needed to reach 50% inhibition), transporter 31 10 μM, co-incubation (C)
[7] = Homo sapiens, 1 h, co-incubation (C)
[8] = transporter 31 10 μM, co-incubation (C)
[9] = with transporter 31, co-incubation (C)
[10] = with transporter 28, co-incubation (C)

Chain of cathepsin L (P07711 114-333, species assumed): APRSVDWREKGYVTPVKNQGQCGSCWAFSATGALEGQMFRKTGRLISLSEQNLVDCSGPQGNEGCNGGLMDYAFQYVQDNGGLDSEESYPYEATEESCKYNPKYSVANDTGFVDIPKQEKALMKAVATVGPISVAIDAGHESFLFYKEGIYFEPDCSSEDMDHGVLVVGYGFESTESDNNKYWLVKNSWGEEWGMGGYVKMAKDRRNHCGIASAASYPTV

[O-][S+]1C[C@@H](O)[C@@H](O)CS1 (stereo partly drawn) [Compound 2]
RV50 (concentration needed to lower relative viability by 50%) (HeLa Kyoto cells [1]; [5]): >100 µM | IC50 (HK cells, transporter 31 [2]): > 5000 µM | MIC (concentration needed to reach 15% inhibition) (HK cells, transporter 31 [2]): 800 µM (≈ 135 µg/mL) | RV50 (concentration needed to lower relative viability by 50%) (HeLa Kyoto cells [3]): 4400 µM

O=S1(=O)C[C@H](O)[C@H](O)CS1 (stereo in doubt) [Compound 3, (4S,5R)-4,5-dihydroxy-1,2-dithiane-1,1-dioxide]
IC50 (HK cells, transporter 31 [4]; [6]): 35 µM | IC15 (HK cells, transporter 31 [4]; [7]): 3 µM | MIC (concentration needed to reach 15% inhibition) (HK cells, transporter 31 [4]; [8]): 3 µM | RV50 (concentration needed to lower relative viability by 50%) (HeLa Kyoto cells [1]; [5]): >1000 µM | RV50 (concentration needed to lower relative viability by 50%) (HeLa Kyoto cells [1]; [9]): >1000 µM | inhibition of trypsin (in words) (trypsin): inhibits | inhibition of cathepsin L (in words) (cathepsin L): not L | inhibition of cathepsin B (in words) (cathepsin B): inhibits | IC50 (HK cells, transporter 31 [2]): > 1000 µM | MIC (concentration needed to reach 15% inhibition) (HK cells, transporter 31 [2]): 200 µM (≈ 36.8 µg/mL) | IC50 (HK cells, transporter 32; read-out: IC50 (concentration needed to reach 50% inhibition)): 550 µM | MIC (concentration needed to reach 15% inhibition) (HK cells, transporter 32): 250 µM (≈ 46.1 µg/mL) | viability at 7 h, 50 µM (in vitro): 81% | RV50 (concentration needed to lower relative viability by 50%) (HeLa Kyoto cells [3]): 1300 µM

O=C1O[C@H]2CSS(=O)(=O)C[C@H]2O1 [Compound 11]
IC50 (HK cells, transporter 31 [4]; [6]): > 50 µM | IC15 (HK cells, transporter 31 [4]; [7]): < 5 µM | IC15 (HK cells, transporter 31 [4]; Homo sapiens, 1 h, pre-incubation (P)): 1.5 µM | IC50 (HK cells, transporter 31 [4]; Homo sapiens, read-out: IC50 (concentration needed to reach 50% inhibition), transporter 31 10 μM, pre-incubation (P)): 9 µM | MIC (concentration needed to reach 15% inhibition) (HK cells, transporter 31 [4]; [8]): <5 µM | RV50 (concentration needed to lower relative viability by 50%) (HeLa Kyoto cells [1]; [10]): > 50 µM | RV50 (concentration needed to lower relative viability by 50%) (HeLa Kyoto cells [1]; [9]): >50 µM | RV50 (concentration needed to lower relative viability by 50%) (HeLa Kyoto cells [1]; with transporter 31, pre-incubation (P)): >20 µM | viability at 7 h, 50 µM (in vitro): 84%

O=S1(=O)C=C[C@@H](O)CS1 [Compound 12]
IC50 (HK cells, transporter 31 [4]; [6]): 7.2 ± 0.9 µM | IC15 (HK cells, transporter 31 [4]; [7]): < 1 µM | IC50 (HK cells, transporter 31 [4]; read-out: IC50 (concentration needed to reach 50% inhibition), transporter 31 10 μM, co-incubation (C)): 7 µM | MIC (concentration needed to reach 15% inhibition) (HK cells, transporter 31 [4]; [8]): <1 µM | RV50 (concentration needed to lower relative viability by 50%) (HeLa Kyoto cells [1]; [10]): 100 µM | RV50 (concentration needed to lower relative viability by 50%) (HeLa Kyoto cells [1]; [9]): >50 µM | inhibition of trypsin (in words) (trypsin): inhibit only cathepsin B | inhibition of cathepsin L (in words) (cathepsin L): inhibit only cathepsin B | inhibition of cathepsin B (in words) (cathepsin B): inhibit only cathepsin B
